Literature values, collected in patent US20210161808A1, “Nasal Drug Delivery System of Brivaracetam or Salt Thereof” (Zenvision Pharma LLP, priority 2018, published 2021).
Read-outs that look alike come from different tables or passages of the source.

What was measured:
[1] = molecular target: synaptic vesicle protein 2A (SV2A) (Homo sapiens, UniProt Q7L0J3); conditions: in the brain
synaptic vesicle protein 2A (SV2A), sequence (Q7L0J3 whole entry): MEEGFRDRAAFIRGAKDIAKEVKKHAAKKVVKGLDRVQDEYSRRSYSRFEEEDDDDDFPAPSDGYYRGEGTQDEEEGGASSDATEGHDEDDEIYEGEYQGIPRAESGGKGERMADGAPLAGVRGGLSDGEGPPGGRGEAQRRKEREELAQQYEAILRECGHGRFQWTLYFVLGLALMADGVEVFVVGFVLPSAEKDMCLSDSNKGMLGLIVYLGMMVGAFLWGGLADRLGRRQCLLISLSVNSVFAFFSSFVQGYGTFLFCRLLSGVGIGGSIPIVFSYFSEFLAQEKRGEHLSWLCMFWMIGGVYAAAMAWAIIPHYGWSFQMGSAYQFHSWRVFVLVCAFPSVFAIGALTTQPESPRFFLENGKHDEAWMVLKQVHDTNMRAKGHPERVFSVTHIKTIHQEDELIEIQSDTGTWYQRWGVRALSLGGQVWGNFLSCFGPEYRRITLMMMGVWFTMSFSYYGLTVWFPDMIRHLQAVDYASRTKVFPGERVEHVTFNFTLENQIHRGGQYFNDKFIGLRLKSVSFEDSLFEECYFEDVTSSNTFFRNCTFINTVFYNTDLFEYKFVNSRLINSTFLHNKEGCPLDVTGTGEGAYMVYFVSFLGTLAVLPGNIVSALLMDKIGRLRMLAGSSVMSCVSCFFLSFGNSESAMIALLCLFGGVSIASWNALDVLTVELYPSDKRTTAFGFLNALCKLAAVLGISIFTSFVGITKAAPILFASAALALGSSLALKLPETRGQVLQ

In the case of CCC[C@@H]1CC(=O)N([C@@H](CC)C(N)=O)C1 [Brivaracetam, (2S)-2-[(4R)-2-oxo-4-propyltetrahydro-1H-pyrrol-1-yl] butanamide], the “affinity for synaptic vesicle protein 2A (SV2A)” value [1] is given as “high and selective affinity”, the solubility (in acetone) is given as “freely soluble” and the solubility (in acetonitrile) is given as “freely soluble”. The solubility (in buffer (pH 1.2, 4.5, and 7.4)) was “very soluble”, the solubility (in ethanol) was “very soluble” and the solubility (in glacial acetic acid) was “very soluble”. For the same molecule, the solubility (in methanol) was “very soluble”, the solubility (in n-hexane) was “very slightly soluble” and the solubility (in toluene) was “soluble”. The solubility (in water) was “very soluble”.
